Experimental data from PubChem BioAssay AID248 (DTP/NCI, 2004).
Values joined by “and” are separate entries in the source; they are usually repeats but may differ in a detail not shown here. Equal entries are not always repeated. Inconclusive results and toxic doses are left out. Cut-off read from the data, not from the text of the source: active = T/C of 150% or more; inactive = T/C below 125%.

System: L1210 leukemia ip in BDF1 mice, survival T/C
Experiment: NCI In Vivo Anticancer Drug Screen. Data for tumor model L1210 Leukemia (intraperitoneal) in B6D2F1 (BDF1) mice
Settings: higher = longer survival
In short: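 Value reflects the ratio of survival in compound-treated mice to survival in vehicle-treated controls, with both groups carrying the same transplanted tumor.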

[1] = endpoint: mean survival time, dose: 100.0 mg/kg/injection, schedule: Q04DX002 (ip), vehicle: Klucel (hydroxypropylcellulose) (HPC)
[2] = endpoint: mean survival time, dose: 200.0 mg/kg/injection, schedule: Q04DX002 (ip), vehicle: Klucel (hydroxypropylcellulose) (HPC)
[3] = endpoint: mean survival time, dose: 100.0 mg/kg/injection, schedule: Q01DX001 (ip), vehicle: carboxymethylcellulose (CMC)
[4] = endpoint: mean survival time, dose: 200.0 mg/kg/injection, schedule: Q01DX001 (ip), vehicle: carboxymethylcellulose (CMC)
[5] = endpoint: mean survival time, dose: 400.0 mg/kg/injection, schedule: Q01DX001 (ip), vehicle: carboxymethylcellulose (CMC)
[6] = endpoint: mean survival time, dose: 100.0 mg/kg/injection, schedule: Q01DX009 (ip), vehicle: Klucel (hydroxypropylcellulose) (HPC)
[7] = endpoint: mean survival time, dose: 400.0 mg/kg/injection, schedule: Q04DX002 (ip), vehicle: Klucel (hydroxypropylcellulose) (HPC)
[8] = endpoint: mean survival time, dose: 100.0 mg/kg/injection, schedule: Q01DX009 (ip), vehicle: saline
[9] = endpoint: mean survival time, dose: 100.0 mg/kg/injection, schedule: Q04DX003 (ip), vehicle: saline
[10] = endpoint: mean survival time, dose: 200.0 mg/kg/injection, schedule: Q01DX009 (ip), vehicle: saline
[11] = endpoint: mean survival time, dose: 200.0 mg/kg/injection, schedule: Q04DX003 (ip), vehicle: saline
[12] = endpoint: mean survival time, dose: 400.0 mg/kg/injection, schedule: Q01DX009 (ip), vehicle: saline
[13] = endpoint: mean survival time, dose: 400.0 mg/kg/injection, schedule: Q04DX003 (ip), vehicle: saline

Measured: T/C

Cc1cc(C)c2c(c1)CC2=O
inactive: endpoint: mean survival time, dose: 50.0 mg/kg/injection, schedule: Q04DX002 (ip), vehicle: Klucel (hydroxypropylcellulose) (HPC) 96 % of control | [1] 112 % of control | [2] 86 % of control

COC(=O)C[C@](O)(CCC(C)(C)O)C(=O)O[C@@H]1C(OC)=C[C@]23CCCN2CCc2cc4c(cc2[C@H]13)OCO4
inactive: endpoint: mean survival time, dose: 0.13 mg/kg/injection, schedule: Q#A X018 (ip), vehicle: saline 116 % of control | endpoint: mean survival time, dose: 0.25 mg/kg/injection, schedule: Q01DX009 (ip), vehicle: saline 104 % of control and 117 % of control and 124 % of control | endpoint: mean survival time, dose: 0.25 mg/kg/injection, schedule: Q01DX009 (ip), vehicle: water 118 % of control | endpoint: mean survival time, dose: 0.25 mg/kg/injection, schedule: Q03HX008 (ip), vehicle: saline 109 % of control | endpoint: mean survival time, dose: 0.25 mg/kg/injection, schedule: Q03HX016 (ip), vehicle: saline 113 % of control | endpoint: mean survival time, dose: 0.25 mg/kg/injection, schedule: Q03HX024 (ip), vehicle: saline 118 % of control | endpoint: mean survival time, dose: 0.25 mg/kg/injection, schedule: Q#A X018 (ip), vehicle: saline 114 % of control | endpoint: mean survival time, dose: 0.5 mg/kg/injection, schedule: Q01DX009 (oral), vehicle: saline 105 % of control | endpoint: mean survival time, dose: 0.5 mg/kg/injection, schedule: Q01DX009 (sc), vehicle: saline 110 % of control | endpoint: mean survival time, dose: 0.5 mg/kg/injection, schedule: Q03HX008 (ip), vehicle: saline 116 % of control | endpoint: mean survival time, dose: 0.5 mg/kg/injection, schedule: Q03HX016 (ip), vehicle: saline 107 % of control | endpoint: mean survival time, dose: 0.5 mg/kg/injection, schedule: Q03HX024 (ip), vehicle: saline 119 % of control | endpoint: mean survival time, dose: 0.5 mg/kg/injection, schedule: Q#A X018 (ip), vehicle: saline 122 % of control | endpoint: mean survival time, dose: 1.0 mg/kg/injection, schedule: Q01DX009 (oral), vehicle: saline 111 % of control | endpoint: mean survival time, dose: 1.0 mg/kg/injection, schedule: Q01DX009 (sc), vehicle: saline 121 % of control | endpoint: mean survival time, dose: 1.0 mg/kg/injection, schedule: Q03HX008 (ip), vehicle: saline 124 % of control | endpoint: mean survival time, dose: 2.0 mg/kg/injection, schedule: Q01DX001 (ip), vehicle: saline 113 % of control | endpoint: mean survival time, dose: 2.0 mg/kg/injection, schedule: Q01DX009 (oral), vehicle: saline 112 % of control | endpoint: mean survival time, dose: 2.0 mg/kg/injection, schedule: Q04DX003 (ip), vehicle: saline 105 % of control | endpoint: mean survival time, dose: 2.0 mg/kg/injection, schedule: Q08DX002 (ip), vehicle: saline 101 % of control | endpoint: mean survival time, dose: 2.0 mg/kg/injection, schedule: Q#A X018 (ip), vehicle: saline 113 % of control | endpoint: mean survival time, dose: 4.0 mg/kg/injection, schedule: Q01DX001 (ip), vehicle: saline 110 % of control | endpoint: mean survival time, dose: 4.0 mg/kg/injection, schedule: Q01DX009 (ip), vehicle: saline 119 % of control and 124 % of control | endpoint: mean survival time, dose: 4.0 mg/kg/injection, schedule: Q01DX009 (oral), vehicle: saline 98 % of control | endpoint: mean survival time, dose: 4.0 mg/kg/injection, schedule: Q01DX009 (sc), vehicle: saline 92 % of control | endpoint: mean survival time, dose: 4.0 mg/kg/injection, schedule: Q04DX003 (ip), vehicle: saline 123 % of control | endpoint: mean survival time, dose: 4.0 mg/kg/injection, schedule: Q08DX002 (ip), vehicle: saline 107 % of control | endpoint: mean survival time, dose: 8.0 mg/kg/injection, schedule: Q01DX001 (ip), vehicle: saline 117 % of control | endpoint: mean survival time, dose: 8.0 mg/kg/injection, schedule: Q04DX003 (ip), vehicle: saline 87 % of control | endpoint: mean survival time, dose: 8.0 mg/kg/injection, schedule: Q08DX002 (ip), vehicle: saline 107 % of control | endpoint: mean survival time, dose: 16.0 mg/kg/injection, schedule: Q08DX002 (ip), vehicle: saline 98 % of control | endpoint: median survival time, dose: 0.25 mg/kg/injection, schedule: Q01DX009 (ip), vehicle: saline 100 % of control and 101 % of control | endpoint: median survival time, dose: 0.5 mg/kg/injection, schedule: Q01DX009 (ip), vehicle: saline 105 % of control and 107 % of control | endpoint: median survival time, dose: 1.0 mg/kg/injection, schedule: Q01DX009 (ip), vehicle: saline 110 % of control and 115 % of control

O=C(COc1cccc(Cl)c1)Nc1cccc(NC(=O)c2cccc(S(=O)(=O)F)c2)c1
inactive: [3] 88 % of control | [4] 88 % of control | [5] 97 % of control

CC1(C)Cc2cccc(C(=O)CCCN3CCC4(CC3)C(=O)NCN4c3ccccc3)c2O1
inactive: endpoint: mean survival time, dose: 50.0 mg/kg/injection, schedule: Q01DX001 (ip), vehicle: Klucel (hydroxypropylcellulose) (HPC) 100 % of control | endpoint: mean survival time, dose: 100.0 mg/kg/injection, schedule: Q01DX001 (ip), vehicle: Klucel (hydroxypropylcellulose) (HPC) 102 % of control | endpoint: mean survival time, dose: 200.0 mg/kg/injection, schedule: Q01DX001 (ip), vehicle: Klucel (hydroxypropylcellulose) (HPC) 93 % of control

Cc1ccc(NC(=O)/C=C/c2ccccc2)cc1Cl
inactive: [6] 95 % of control | endpoint: mean survival time, dose: 200.0 mg/kg/injection, schedule: Q01DX009 (ip), vehicle: Klucel (hydroxypropylcellulose) (HPC) 98 % of control | endpoint: mean survival time, dose: 400.0 mg/kg/injection, schedule: Q01DX009 (ip), vehicle: Klucel (hydroxypropylcellulose) (HPC) 104 % of control

ClC(Cl)(Cl)c1cccc(-c2nc(C(Cl)(Cl)Cl)nc(C(Cl)(Cl)Cl)n2)c1
inactive: [1] 106 % of control | [2] 90 % of control | [7] 100 % of control

CCCCOc1c(OC)cc(OC)cc1C(=O)O
inactive: [3] 102 % of control | [4] 91 % of control | [5] 86 % of control

Cc1ccc(-n2ccnc2)c(N=Cc2ccc(N(CCCl)CCCl)cc2Cl)c1
inactive: [1] 102 % of control | [2] 102 % of control | [7] 102 % of control

CC(C)CCCC(C)C1CCC2C3CC(=O)NC4CC(Br)CCC4(C)C3CCC12C (centres undefined)
inactive: endpoint: mean survival time, dose: 100.0 mg/kg/injection, schedule: Q04DX003 (ip), vehicle: acetone 93 % of control | endpoint: mean survival time, dose: 200.0 mg/kg/injection, schedule: Q04DX003 (ip), vehicle: acetone 102 % of control | endpoint: mean survival time, dose: 400.0 mg/kg/injection, schedule: Q04DX003 (ip), vehicle: acetone 98 % of control

NC(=O)NN=C1CSSC1
inactive: endpoint: mean survival time, dose: 1.56 mg/kg/injection, schedule: Q01DX009 (ip), vehicle: saline with Tween-80 101 % of control | endpoint: mean survival time, dose: 3.12 mg/kg/injection, schedule: Q01DX009 (ip), vehicle: saline with Tween-80 99 % of control | endpoint: mean survival time, dose: 6.25 mg/kg/injection, schedule: Q01DX009 (ip), vehicle: saline with Tween-80 94 % of control | endpoint: mean survival time, dose: 6.25 mg/kg/injection, schedule: Q04DX003 (ip), vehicle: saline with Tween-80 97 % of control | endpoint: mean survival time, dose: 12.5 mg/kg/injection, schedule: Q01DX009 (ip), vehicle: saline with Tween-80 98 % of control and 106 % of control | endpoint: mean survival time, dose: 12.5 mg/kg/injection, schedule: Q04DX003 (ip), vehicle: saline with Tween-80 97 % of control

COC(OC)OC
inactive: [8] 104 % of control | [9] 100 % of control | [10] 101 % of control | [11] 105 % of control | [12] 100 % of control | [13] 105 % of control

CC(C)N(C(=O)/C=C/C(=O)N(C(C)C)C(C)C)C(C)C
inactive: endpoint: mean survival time, dose: 25.0 mg/kg/injection, schedule: Q04DX003 (ip), vehicle: saline 92 % of control | endpoint: mean survival time, dose: 50.0 mg/kg/injection, schedule: Q04DX003 (ip), vehicle: saline 95 % of control | endpoint: mean survival time, dose: 100.0 mg/kg/injection, schedule: Q04DX003 (ip), vehicle: saline with Tween-80 100 % of control | [9] 98 % of control | endpoint: mean survival time, dose: 200.0 mg/kg/injection, schedule: Q04DX003 (ip), vehicle: saline with Tween-80 96 % of control

C=CCc1ccc(OC(=O)Nc2ccc(S(=O)(=O)CC)cc2)c(OC)c1
inactive: [3] 90 % of control | [4] 93 % of control | [5] 93 % of control

CCOP(=O)(CSCC)OCC
inactive: [8] 102 % of control | [9] 94 % of control | [10] 98 % of control | [11] 100 % of control | [12] 100 % of control | [13] 92 % of control

CSc1nc(NC(=O)CCl)cc(=O)[nH]1
inactive: endpoint: mean survival time, dose: 25.0 mg/kg/injection, schedule: Q01DX009 (ip), vehicle: Klucel (hydroxypropylcellulose) (HPC) 93 % of control and 97 % of control and 89 % of control | [6] 97 % of control and 89 % of control | endpoint: mean survival time, dose: 100.0 mg/kg/injection, schedule: Q04DX003 (ip), vehicle: Klucel (hydroxypropylcellulose) (HPC) 90 % of control | endpoint: mean survival time, dose: 200.0 mg/kg/injection, schedule: Q04DX003 (ip), vehicle: Klucel (hydroxypropylcellulose) (HPC) 98 % of control | endpoint: mean survival time, dose: 400.0 mg/kg/injection, schedule: Q04DX003 (ip), vehicle: Klucel (hydroxypropylcellulose) (HPC) 102 % of control
